Entries after “also recorded” stand apart in the source; their conditions may differ.
Assay: Ex vivo skin permeation experiment
Format: in vitro ADME
Conditions: human donor skin
Method: Human donor skin was placed between upper and lower compartments. The lower compartment was filled with receiver fluid. Various rapamycin compositions were applied on the surface of the skin facing the upper compartment (11 formulations (i.e., O3, NA21, NA22, NA21, NA17, TD201, NA19, NA25, AG14, NA26 and NA24), n=6 replicates, dosage 10 mg/cm^2) and left for 24 hrs. A positive displacement pipette was used to apply the formulation (˜10 mg/cm2) to the plunger of a 1 mL syringe. The formulation (10+/−0.5 mg) was applied to the skin surface and spread over the diffusion area using the plunger. Prior to and after the application the weight of the plunger was recorded, from which the dose per cell was calculated.
Following the time period, the excess rapamycin compositions were wiped from the skin surface and the skin layers were separated into stratum corneum, epidermis, and dermis. The Stratum corneum was removed from the human skin using a tape stripping procedure. The epidermis was separated from the dermis by dry heating at 60° C. for 2 min. Rapamycin was extracted from each layer by 90:10 v/v ethanol: water solvent mixture, and quantified. The receiver fluid in the lower compartment was also analyzed for the presence of rapamycin.

With `CO[C@H]1C[C@@H]2CC[C@@H](C)[C@@](O)(O2)C(=O)C(=O)N2CCCC[C@H]2C(=O)O[C@H]([C@H](C)C[C@@H]2CC[C@@H](O)[C@H](OC)C2)CC(=O)[C@H](C)/C=C(\C)[C@@H](O)[C@@H](OC)C(=O)[C@H](C)C[C@H](C)/C=C/C=C/C=C/1C` [rapamycin] the “distribution of rapamycin over skin surface, stratum corneum, epidermis and dermis” value (10 mg/cm^2, 24 hrs) was “greatest amount of rapamycin was found on the surface of the skin; also recorded: more of the drug residing in the epidermis than either the stratum corneum or dermal layer; also recorded: increase in the amount of rapamycin quantified in both the epidermis and dermis” and the “rapamycin in the receiver fluid” value (10 mg/cm^2, any time point across the experimental period (24 hrs)) was “not detected”.
